Measurements from publication PMC4418694, “Crystal Structure of Fad35R from Mycobacterium tuberculosis H37Rv in the Apo-State” (PLoS ONE, 2015).

Target: T1, Fad35R (Mycobacterium tuberculosis, UniProt O06169)
T1 construct: gene Rv2506
T1 sequence (O06169 entry or part of it): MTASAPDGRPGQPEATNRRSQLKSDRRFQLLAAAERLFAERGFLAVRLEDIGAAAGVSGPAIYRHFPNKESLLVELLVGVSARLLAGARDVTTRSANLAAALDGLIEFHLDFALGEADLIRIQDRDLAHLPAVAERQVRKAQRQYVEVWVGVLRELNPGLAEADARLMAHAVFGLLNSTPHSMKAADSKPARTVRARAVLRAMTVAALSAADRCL

With CN(C)[C@@H]1C(=O)C(C(N)=O)=C(O)[C@@]2(O)C(=O)C3=C(O)c4c(O)cccc4[C@@](C)(O)[C@H]3C[C@@H]12 [tetracycline] as the compound, how does the “ligand-induced oligomerization: dynamic light scattering, size-exclusion chromat” value read?
Its value is “Tc bound Fad35R has the propensity to form higher oligomers”.
